# Test results from PubChem BioAssay AID1996.
# Details: buffer; pH 7.4; 200.0 µM
row,Structure (SMILES),solubility kinetic [µg/mL]
1,CCOC(=O)C(=O)N1CCC(C(=O)OCC)CC1,> 38.6
2,Cc1ccc(Nc2nc(-c3ccc(F)cc3)cs2)nc1,< 0.2
3,Cc1ccsc1CNCC(O)c1ccccc1.Cl (stereo not given),> 42.6
4,CC(=O)Nc1ccc(NC(=O)C(C)OC(=O)c2ccc(S(=O)(=O)N3CCCCC3)cc2)cc1 (stereo not given),6.4
5,Cc1ccc(NC(=O)Cc2ccsc2)cc1Cl,4.6
6,O=C(CSc1ncnc2ccccc12)NCc1ccc2c(c1)OCO2,10.1
7,CN(c1cccc2cccnc12)S(=O)(=O)c1ccccc1,40.7
8,COc1cccc(NC(=O)c2ccc3nsnc3c2)c1,24.5
9,Cc1cc(-c2ccccc2)c2ccc(NC(=O)C(C)(C)C)nc2n1,0.6
10,O=C(COC(=O)c1ccc(O)cc1)Nc1ccc(OC(F)F)cc1,29.9
11,CCc1ccc(N2CC(C(=O)Nc3ccc(F)cc3)CC2=O)cc1 (stereo not given),0.8
12,O=C(NCCc1cccs1)c1cccs1,> 35.6
13,COc1ccc(OCC(=O)c2c[nH]c3ccccc23)cc1,< 0.6
14,O=C(Cn1cnc2ccccc2c1=O)N1CCc2ccccc2C1,> 47.9
15,CC1C2(C)OCC(C#N)(C(=N)O2)C1(C#N)C#N (stereo not given),> 34.5
16,O=C(Nc1ncccn1)c1cccc(Cl)c1,23.6
17,CC(C)S(=O)(=O)C/C(N)=N/OC(=O)c1cc(Cl)cc(Cl)c1,34.5
18,CCCN1CCCC(C(=O)c2cc(C)c(OC)c(C)c2)C1 (stereo not given),39
19,COC(=O)c1cc(NC(=O)c2cccs2)ccc1N1CCOCC1,43.5
20,COc1ccc(CCN(C)C(=O)c2ccc3c(=O)n4c(nc3c2)CCCCC4)cc1OC,> 65.3
21,CCN(CC)C(=O)c1ccc(NC(=O)COc2ccccc2F)cc1,> 51.7
22,CC(NS(=O)(=O)/C=C/c1ccccc1)C(=O)O (stereo not given),34.2
23,CN(C)CCNC(=O)COc1cccc2c1OC(C)(C)C2,> 43.9
24,O=C(C1=C(O)C(=O)N(Cc2cccnc2)C1c1cccc(Oc2ccccc2)c1)c1ccco1 (stereo not given),> 67.9

# Continued, values first:
row,solubility kinetic [µg/mL],Structure (SMILES)
1,30,CCN(CC)C(=O)N1CCN(C(=O)N2CCOCC2)CC1
2,1.7,Cc1ccc(C(=O)C2CCN(CC(=O)Nc3ccccc3C)CC2)cc1
3,10.1,COc1cc(-c2ccc(NC(C)=O)c(OC)c2)ccc1NC(C)=O
4,28.8,O=C(c1ccccn1)c1ccc2ccccc2n1
5,> 25.5,NC(=S)Nc1cccc(F)c1
6,> 44.6,COc1ccc(NS(=O)(=O)c2cn(C)cn2)c(OC)c1
7,> 49.3,Cc1ccc(NC(=O)C2CCN(C(=O)c3cccs3)CC2)cc1
8,19.6,O=C1OC(c2ccc(F)cc2)=N/C1=C\C=C/c1ccccc1
9,37.8,CCOC(=O)C(=CNc1ccc(S(N)(=O)=O)cc1)C(=O)OCC
10,42.3,COCCNC(=O)C(=O)Nc1cc2c3c(c1)CC(=O)N3CCC2
11,> 37.5,CCCC(=O)c1c[nH]c(C(=O)N2CCOCC2)c1
12,> 33.2,CC1CC(=O)Nc2cc([N+](=O)[O-])ccc2N1 (stereo not given)
13,0.8,Cc1cccc(NC(=O)NC(=O)c2ccccc2)n1
14,1.2,CCOc1ccc(C(=O)NCc2ccc3c(c2)OCO3)cc1OCC
15,2.9,CC(C)(C)Nc1nc(Cl)nc(Nc2ccccc2)n1
16,1.7,CCN(CC)Cc1nc2c(c(=O)[nH]1)C(CC)(CC)Cc1ccccc1-2
17,> 45.8,c1ccc(CN2CCN(Cc3c[nH]c4ccccc34)CC2)cc1
18,24,CCCOC(=O)c1ccc(NC(=O)Cc2cccs2)cc1

row,solubility kinetic [µg/mL],Structure (SMILES)
1,45.3,Cc1ccc(Cn2ccsc2=NC(=O)COC(=O)C(C)C)cc1
2,> 50.3,CC(C)C(OC(=O)c1cccs1)C(=O)NCc1ccc(F)cc1 (stereo not given)
3,36.8,CCOc1ccccc1C(=O)NC1CCN(Cc2ccccc2)CC1
4,42.9,CC(=O)c1ccc(NC(=O)C(C)NCc2ccc(Cl)cc2)cc1 (stereo not given)
5,5.1,Cc1ccc2[nH]c(=O)c(-c3noc(CC(C)C)n3)cc2c1
6,4.8,CCOc1ccc(/C=C(\C#N)C(=O)NC2CC2)c(OCC)c1
7,2.7,Cc1cc(C(=O)Nc2ccc(Cl)cc2)c(C)n1Cc1cccs1
8,41.8,Cn1ccnc1SCC(=O)Nc1cc(F)ccc1F
9,> 42.5,Cc1cc(C)nc(/N=C(\N)Nc2ccc(C(C)C)cc2)n1
10,> 56.2,CN(Cc1ccccc1Cl)C(=O)CNC(=O)C12CC3CC(CC(C3)C1)C2
11,0.8,CCOc1ccc(-c2cnc3ccccc3n2)cc1
12,1,O=C(Nc1nc2cc3c(cc2s1)OCO3)c1ccco1
13,> 34.1,COCCCN1C(=O)CC(C(=O)OC)=C1C
14,> 44.9,O=C(Nc1cc(=O)[nH]c(=O)[nH]1)c1cccc(C(F)(F)F)c1
15,> 39.5,CC(C)NC(=O)NNc1c(Cl)cncc1Cl
16,> 49.6,COc1ccc(NC(=S)Nc2cccc(C(C)=O)c2)cc1OC
17,> 54.5,CN(C(=O)CC1C(=O)NCCN1Cc1ccc(F)cc1)C1CCOCC1 (stereo not given)
18,10.6,CCOc1ccc(OCC)c(S(=O)(=O)n2cc(C)nc2CC)c1
